Read-outs that look alike come from different tables or passages of the source. Bridge positions count the residues as written; N and C are the ends. Peptide text beside a SMILES is read from it.
Legend:
bovine trypsin = target: T1, bovine trypsin (Bos taurus, UniProt P00760); experiment: Trypsin inhibition with substrate Boc-Leu-Gly-Arg-pNA (Example 4); type: biochemical; conditions: as barnase′ fusion proteins
T1 construct: purchased Serva
T1 sequence (P00760 24-246): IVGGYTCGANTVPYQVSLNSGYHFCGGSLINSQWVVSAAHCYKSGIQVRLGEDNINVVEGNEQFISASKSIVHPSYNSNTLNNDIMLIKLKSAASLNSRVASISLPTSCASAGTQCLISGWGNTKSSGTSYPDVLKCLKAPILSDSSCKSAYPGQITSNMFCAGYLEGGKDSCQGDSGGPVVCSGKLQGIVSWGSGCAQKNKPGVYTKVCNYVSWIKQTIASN
Experimental: The inhibitory activity of the protein variants was measured according to van Nostrand et al. (1990) and Sinha et al. (1991). The remaining activity of bovine trypsin (Serva) was determined after incubation with the respective inhibitor for 10 min at 37° C. by monitoring hydrolysis of the chromogenic substrate Boc-Leu-Gly-Arg-pNA (Bachem, solubilized in Me2SO) at 405 nm. Assays were performed in a final volume of 100 μl in 50 mM Tris-HCl, pH 7.5, 150 mM NaCl, 5 mM CaCl2 at 37° C. containing 5 nM of trypsin, […] and varying amounts of inhibitor (10^−10-10^−6 M). For calculation of Kiapp-values, vmax values were determined and the curve fitting tool of SigmaPlot (Jandel Scientific) was applied on the basis of the following formula, that describes the case of competitive tight binding inhibitors (Morrison, 1969):
[formula] vi=vmax value of inhibited reaction v0=vmax value of uninhibited reaction [Et]=total enzyme concentration (free and in complex) [It]=total inhibitor concentration (free and in complex) Kiapp=apparent dissociation constant of the enzyme-inhibitor complex. Results and Discussion Choice of Carrier Protein and Production Strategy

β3-Tryptase = β3-Tryptase (Homo sapiens, UniProt P20231); experiment: Kiapp determination with tryptase (Example 3); type: biochemical
Experimental: (§1) Tryptase (0.2 nM) was preincubated with McoTi-KVV (0-34 nM) at 37 degree C. for 60 min, and the reaction was initiated by the addition of substrate tos-Gly-Pro-Arg-AMC. The residual steady state velocities were measured over 10 min and are expressed in % of the activity measured in the absence of the inhibitor.
as §1, with “MCoEeTI (0-1950” for “McoTi-KVV (0-34”

Thrombin = Thrombin (Homo sapiens, UniProt P00734); experiment: biochemical
hK3 = hK3 (Homo sapiens, UniProt P07288); experiment: biochemical
Elastase (Neutrophiles) = Elastase (Neutrophiles) (Homo sapiens, UniProt P08246); experiment: biochemical
tPA = tPA (Homo sapiens, UniProt P00750); experiment: biochemical
Chymotrypsin = experiment: Protease selectivity, Kiapp; type: biochemical; conditions: Porcine
Faktor XA = Faktor XA (Homo sapiens, UniProt P00742); experiment: biochemical
Tryptase β-II = Tryptase β-II (Homo sapiens, UniProt P20231); experiment: biochemical
Cathepsin G = Cathepsin G (Homo sapiens, UniProt P08311); experiment: biochemical
Tryptase β-Ia = Tryptase β-Ia (Homo sapiens, UniProt Q15661); experiment: biochemical
pK1 = experiment: Protease selectivity, Kiapp; type: biochemical; conditions: Human
Trypsin [1] = target: Trypsin (Sus scrofa, UniProt P00761); experiment: biochemical
Plasmin = Plasmin (Homo sapiens, UniProt P00747); experiment: biochemical
Tryptase ST2 = Tryptase ST2 (Ovis aries, UniProt Q9XSM2); experiment: biochemical
[2] = target: Elastase (Pankreas proteases) (Sus scrofa, UniProt P00772); experiment: biochemical
tetrameric tryptase = tetrameric tryptase (Homo sapiens, UniProt P20231); conditions: cited from earlier work
Trypsin [3] = target: T2, Trypsin (Bos taurus, UniProt P00760); experiment: Kiapp determination with trypsin (Example 3); type: biochemical, bovine
T2 sequence (P00760 24-246): T1 sequence (P00760 24-246)
Excerpt: Therefore, bovine pancreatic trypsin was standardised by active-site titration using p-Nitrophenyl p′-guanidinobenzoate (Chase & Shaw, 1970).

For CC[C@H](C)[C@@H]1NC(=O)[C@H](CCCCN)NC(=O)[C@@H]2CCCN2C(=O)[C@@H](NC(=O)[C@@H](NC(=O)[C@H](CO)NC(=O)CN)C(C)C)CSSC[C@@H]2NC(=O)CNC(=O)[C@H](C)NC(=O)[C@H](CC(C)C)NC(=O)[C@@H]3CSSC[C@@H](C(=O)NCC(=O)N[C@@H](CO)C(=O)O)NC(=O)[C@H](Cc4ccccc4)NC(=O)CNC(=O)[C@H](CC(N)=O)NC(=O)[C@@H]4CCCN4C(=O)CNC(=O)[C@H](CSSC[C@H](NC(=O)[C@H](CCCCN)NC(=O)[C@H](CCCCN)NC(=O)[C@H](CC(C)C)NC1=O)C(=O)N[C@@H](CCCNC(=N)N)C(=O)N[C@@H](CCCNC(=N)N)C(=O)N[C@@H](CC(=O)O)C(=O)N[C@@H](CO)C(=O)N[C@@H](CC(=O)O)C(=O)N3)NC(=O)[C@H](C(C)C)NC2=O [MCoEeTI] (H-GSVCPKILKKCRRDSDCLAGCVCGPNGFCGS-OH; disulfide 4-21, 11-23, 17-29; N-terminus and C-terminus assumed), which “inhibition of bovine trypsin (in words)” value (bovine trypsin) is on record?
The value was “strong inhibitory activity”.

And the Ki (β3-Tryptase)?
The Ki was 200 nM.

With CC[C@H](C)[C@@H]1NC(=O)[C@H](CCCCN)NC(=O)[C@@H]2CCCN2C(=O)[C@@H](NC(=O)[C@@H](NC(=O)CN)C(C)C)CSSC[C@@H]2NC(=O)CNC(=O)[C@H](C)NC(=O)[C@H](CC(C)C)NC(=O)[C@@H]3CSSC[C@@H](C(=O)NCC(=O)N[C@@H](CO)C(=O)O)NC(=O)[C@H](Cc4ccccc4)NC(=O)CNC(=O)[C@H](CC(N)=O)NC(=O)[C@@H]4CCCN4C(=O)CNC(=O)[C@H](CSSC[C@H](NC(=O)[C@H](CCCCN)NC(=O)[C@H](CCCCN)NC(=O)[C@H](CC(C)C)NC1=O)C(=O)N[C@@H](CCCNC(=N)N)C(=O)N[C@@H](CCCNC(=N)N)C(=O)N[C@@H](CC(=O)O)C(=O)N[C@@H](CO)C(=O)N[C@@H](CC(=O)O)C(=O)N3)NC(=O)[C@H](C(C)C)NC2=O [SE-MG-0] (H-GVCPKILKKCRRDSDCLAGCVCGPNGFCGS-OH; disulfide 3-20, 10-22, 16-28; N-terminus and C-terminus assumed) as the compound, how does the Ki (Thrombin) read?
Its Ki is over 1000 nM.

And the Ki (hK3)?
Its Ki is over 1000 nM.

And the Ki (β3-Tryptase)?
The Ki was 100 nM.

And the Ki (Elastase (Neutrophiles))?
Its Ki is over 1000 nM.

What about the Ki (tPA) of the same compound?
The Ki was over 1000 nM.

And the Ki (Chymotrypsin)?
The Ki was over 1000 nM.

And the Ki (Faktor XA)?
Its Ki is over 1000 nM.

And the Ki (Tryptase β-II)?
Its Ki is 70 nM.

And the Ki (Cathepsin G)?
The Ki was over 1000 nM.

And the Ki (Tryptase β-Ia)?
Its Ki is 70 nM.

And the Ki (pK1)?
Its Ki is over 1000 nM.

What about the Ki (Trypsin [1]) of the same compound?
The Ki was 0.3 nM.

And the Ki (Plasmin)?
The Ki was about 600 nM.

And the Ki (Tryptase ST2)?
The Ki was 4000 nM.

And the Ki [2]?
The Ki was over 1000 nM.

With EETI-II [reference compound] as the compound, how does the “inhibition of bovine trypsin (in words)” value (bovine trypsin) read?
Its value is “strong inhibitory activity”.

With “LDTI: leech derived tryptase Inhibitor, a 46 residue Kazal-type protein (KKVCACPKILKPVCGSDGRTYANSCIARCNGVSIKSEGSCPTGILN; UniProt P80424 1-46, looked up)” as the compound, how does the Ki (tetrameric tryptase; 2 of the 4 catalytic sites of the tetrameric tryptase) read?
Its Ki is 1.4 nM.

And the Ki (tetrameric tryptase; one of the remaining two sites)?
The Ki was 560 nM.

What about the Ki (tetrameric tryptase; the other of the remaining two sites) of the same compound?
Its Ki is 10000 nM.

Which results are given for “MCoEeTI-3R-3: Barnase′-[…] (SEQ ID NO:4) (SSSMGVCPRILRRCRRDSDCLAGCVCGPNGFCGS; not fully specified)”?
Ki (β3-Tryptase; read-out: Kiapp β3-Tryptase): 30 nM; Ki (Trypsin [3]): 0.2 nM

For “MCoEeTI-ARD-2: Barnase′-[…] (SEQ ID NO:39) (SSSMGVCPKILKACARDSDCLAGCVCGPNGFCGS; not fully specified)”, which Ki (Trypsin [3]) is on record?
The Ki was 0.2 nM.

For “MCoEeTI-KKV-1: Ba′-[…] (SEQ ID NO:5) (SSSMGKKVGVCPKILKKCRRDSDCLAGCVCGPNGFCGS; not fully specified)”, which Ki (β3-Tryptase; read-out: Kiapp β3-Tryptase) is on record?
The Ki was 20 nM.

What about the Ki (Trypsin [3]) of the same compound?
The Ki was 0.2 nM.

With “MCoEeTI-LKA-7: Bar′-[…] (SEQ ID NO:40) (SSSMGVCPKILKACRRDSDCLAGCVCGPNGFCGS; not fully specified)” as the compound, how does the Ki (Trypsin [3]) read?
The Ki was 0.2 nM.

Which Ki (Trypsin [3]) does the source give for “MCoEeTI-QRT-7: Barnase′-[…] (SEQ ID NO:38) (SSSMGVCPRNRQRCRRDSDCLAGCVCTNNKFCGS; not fully specified)” here?
The Ki was 1 nM.

With “MCoEeTI-T-1: Barnase′-[…] (SEQ ID NO:6) (SSSMGVCPKILKKCRRDSDCLAGCVCTNNKFCGS; not fully specified)” as the compound, how does the Ki (β3-Tryptase; read-out: Kiapp β3-Tryptase) read?
The Ki was 150 nM.

What about the Ki (Trypsin [3]) of the same compound?
The Ki was 0.1 nM.

For “SE-BMG-0: Barnase′-[…] (SEQ ID NO:3) (SSSMGVCPKILKKCRRDSDCLAGCVCGPNGFCGS; not fully specified)”, which Ki (β3-Tryptase; read-out: Kiapp β3-Tryptase) is on record?
The Ki was 100 nM.

And the Ki (Trypsin [3])?
Its Ki is 0.2 nM.

From US8278262B2, “Use of microproteins as tryptase inhibitors” (BioNTech AG, priority 2004, dated 2012)
